Assay results from publication PMC6332026, “Synthesis and Pharmacochemistry of New Pleiotropic Pyrrolyl Derivatives” (Molecules, 2015).

Key:
trypsin = molecular target: T1, trypsin (Bos taurus, UniProt P00760); test: Inhibition of the proteolytic activity of trypsin; type: biochemical; conditions: bovine albumin substrate, pH 7.6; read-out: TP IC50 (inhibition of trypsin)
T1 construct: purchased Sigma Chemical, Co. (St. Louis, MO, USA); host or cells: bovine pancreas
T1 sequence (P00760 24-246): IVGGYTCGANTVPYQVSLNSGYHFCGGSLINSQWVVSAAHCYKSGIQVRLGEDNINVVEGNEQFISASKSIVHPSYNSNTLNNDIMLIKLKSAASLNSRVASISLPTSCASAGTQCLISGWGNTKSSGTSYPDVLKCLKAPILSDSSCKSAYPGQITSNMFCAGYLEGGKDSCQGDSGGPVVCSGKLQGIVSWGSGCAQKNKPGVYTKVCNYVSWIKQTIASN
Source text: Trypsin is an enzyme with an active role in inflammation. Thus, we studied the anti-proteolytic ability of the pyrrole derivatives, using salicylic acid as a reference compound. […] Comparing Compounds 2iv and 2v, the insertion of an electron-acceptor substituent (Cl) on the phenyl ring (substituent Ar^2) and the simultaneous increase of the volume of substituent Ar^2 (expressed as molar refractivity) led to an enhancement of the anti-proteolytic activity.
Carrageenan, type K, was commercially available. Cycloxygenase-2 (COX-2) and interleukin-6 (IL-6) EIA Kit, Item No. 583371 were purchased from Cayman. Trolox was obtained from Aldrich Chemical Co. (Milwaukee, WI, USA). All starting materials were obtained from commercial sources, and they were used without further purification.
The tested compounds (concentrations varying from 10 μΜ–100 μΜ in DMSO) were dissolved in a phosphate buffer (0.1 M K2HPO4–NaH2PO4·2H2O, pH = 7.6), and 0.2 mL of trypsin 0.075 mg/mL were added. The mixture was incubated at room temperature for 20 min, and then, 1 mL of bovine albumin (6 g/100 mL) was added. The mixture was incubated at 37 °C for 30 min. The reaction was stopped with the addition of 1 mL of trichloroacetic acid (5% w/w) Separation of the phases followed, with measurement of the supernatants at 280 nm at room temperature. IC50 values were determined.

[1] = Inhibition of heme-dependent lipid peroxidation of linoleic acid (TBA method); conditions: pH 7.4, 37 °C; read-out: LP IC50 (inhibition of heme-dependent lipid peroxidation of linoleic acid)
Protocol: The anti-lipid peroxidation activity was determined through the inhibition of heme-dependent lipid peroxidation. The peroxidation of sodium linoleate is induced from a mixture of heme and hydrogen peroxide, which produces free radicals from the side chains of amino acids. The assay is performed at pH 7.4 with a phosphate buffer, and the products of peroxidation are identified with the thiobarbituric acid method (TBA). In particular, malonic dialdehyde, a final product of lipid peroxidation, reacts with TBA and forms a colored product, whose absorbance is measured at 535 nm. […] Compounds 2ii and 2vi with low Clog P values are weak inhibitors of lipid peroxidation. It seems that the increase of volume of Ar^1, measured as molar refractivity MR (Ar^1), enhances IC50 values and reduces the inhibitory activity (2i and 2iii; and 2ii, 2iv and 2vi). For derivatives 2iv and 2v, the presence of an electron-acceptor, e.g., a chloro-substituent on the phenyl ring (Ar^2), diminishes the anti-lipid peroxidation activity.
Firstly, 0.4 mL of heme (50 μΜ), 0.25 mL of sodium linoleate (400 μΜ), 0.1 mL of the solutions of the tested compounds (concentrations varying from 10–100 μΜ in DMSO) and 0.25 mL of H2O2 (500 μΜ) were incubated for 10 min in 37 °C in a phosphate buffer (KH2PO4–KOH 50 mM, pH 7.4). The peroxidation products were identified with the reaction of thiobarbituric acid, by adding successively 0.5 mL of 40% trichloroacetic acid (TCA) and 0.5 mL of 2% of thiobarbituric acid (TBA). The addition was followed by stirring and heating at 90 °C for 20 min, and then, 1 mL of acetic acid and 1 mL of chloroform were added and the absorbance measured at 535 nm. IC50 values were determined.

soybean lipoxygenase = molecular target: T2, soybean lipoxygenase (Glycine max, UniProt P08170); test: Inhibition of soybean lipoxygenase (UV absorbance-based enzyme assay); type: biochemical; conditions: for inhibition at 100 µM: read-out: LOX % inhibition
T2 construct: purchased Sigma Chemical, Co. (St. Louis, MO, USA)
T2 sequence (P08170 1-839): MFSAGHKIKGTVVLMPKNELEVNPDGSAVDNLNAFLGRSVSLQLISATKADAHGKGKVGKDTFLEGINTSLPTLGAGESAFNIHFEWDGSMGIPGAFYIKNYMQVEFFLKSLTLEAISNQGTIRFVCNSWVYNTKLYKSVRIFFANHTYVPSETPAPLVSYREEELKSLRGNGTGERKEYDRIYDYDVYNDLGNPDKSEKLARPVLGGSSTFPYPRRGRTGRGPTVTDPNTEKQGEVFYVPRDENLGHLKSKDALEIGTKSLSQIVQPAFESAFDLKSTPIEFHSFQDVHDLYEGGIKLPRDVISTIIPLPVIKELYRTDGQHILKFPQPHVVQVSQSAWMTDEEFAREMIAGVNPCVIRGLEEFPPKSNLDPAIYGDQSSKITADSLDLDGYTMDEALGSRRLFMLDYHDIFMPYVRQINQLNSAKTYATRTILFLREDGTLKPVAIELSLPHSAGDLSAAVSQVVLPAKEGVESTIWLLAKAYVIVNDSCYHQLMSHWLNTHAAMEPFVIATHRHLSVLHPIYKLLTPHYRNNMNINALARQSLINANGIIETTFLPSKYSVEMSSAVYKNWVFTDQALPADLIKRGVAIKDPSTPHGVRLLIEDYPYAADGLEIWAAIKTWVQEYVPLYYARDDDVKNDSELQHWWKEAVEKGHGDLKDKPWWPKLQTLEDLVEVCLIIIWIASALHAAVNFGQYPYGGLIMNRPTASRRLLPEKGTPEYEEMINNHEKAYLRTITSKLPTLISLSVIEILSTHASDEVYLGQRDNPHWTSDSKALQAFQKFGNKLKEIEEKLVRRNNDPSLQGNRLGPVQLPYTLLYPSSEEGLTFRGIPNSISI
Protocol: Lipoxygenase catalyzes the first two steps in the metabolism of arachidonic acid to leukotrienes. LTB4 generation is important in the pathogenesis of neutrophil-mediated inflammatory diseases with a marked relation to the severity of cardiovascular diseases, asthma and cancer. We evaluated the synthesized pyrroles for their ability to inhibit soybean LOX by the UV absorbance-based enzyme assay. […] The inhibition of COX-2, as a peroxidase, was determined by a colorimetric assay with the oxidation of N,N,N′,N′-tetramethyl-p-phenylenediamine (TMPD).
The tested compounds were dissolved in DMSO, and the final concentration was 100 μΜ. The compounds were incubated at room temperature with sodium linoleate as a substrate (0.1 mL) in a buffer solution of Tris:HCl (pH 9.00) and 0.2 mL of a solution of soybean lipoxygenase.

| IC50 (trypsin) | IC50 [1] | IC50 (soybean lipoxygenase; pH 9.00, read-out: LOX IC50) | Structure (SMILES) | inhibition at 100 µM (soybean lipoxygenase) |
| --- | --- | --- | --- | --- |
| 9 µM | 100 µM | – | O=C(c1cccs1)c1c[nH]cc1-c1ccc(OCc2ccc(Br)cc2)cc1 [Compound 2iii, (4-{4-[(4-Bromobenzyl)oxy]phenyl}-1H-pyrrol-3-yl)(thien-2-yl)methanone] | – |
| 60 µM | 40 µM | 1000 µM | O=C(c1cccs1)c1c[nH]cc1-c1cccc(Oc2ccccc2)c1 [Compound 2i, [4-(3-Phenoxyphenyl)-1H-pyrrol-3-yl](thien-2-yl)methanone] | – |
| 65 µM | 72 µM | – | O=C(c1ccccc1)c1c[nH]cc1-c1cccc2ccccc12 [Compound 2iv, [4-(Naphth-1-yl)-1H-pyrrol-3-yl](phenyl)methanone] | 10% |

| Structure (SMILES) | IC50 (trypsin) | IC50 [1] | IC50 (soybean lipoxygenase; pH 9.00, read-out: LOX IC50) | inhibition at 100 µM (soybean lipoxygenase) |
| --- | --- | --- | --- | --- |
| O=C(c1ccc(Cl)cc1)c1c[nH]cc1-c1cccc2ccccc12 [Compound 2v, (4-Chlorophenyl)[4-(naphth-1-yl)-1H-pyrrol-3-yl]methanone] | 8 µM | 150 µM | – | 32% |
